Test results as given in patent US20090258873A1, “Novel tetrahydropyridothiophenes” (priority 2005, published 2009).

Legend:
[1] = test system: RKO (RKOp27) human colon adenocarcinoma cells; assay: Alamar Blue cell viability assay, anti-proliferative/cytotoxic activity on proliferating RKOp27 cells; type: cell-based; conditions: no Ponasterone A, 72 hours incubation, read-out: IC50 RKO p27 uninduced (proliferating)
Protocol: The anti-proliferative I cytotoxic activity of the compounds described herein, can be tested on subclones of RKO (RKOp27) human colon adenocarcinoma cells (Schmidt et al., Oncogene 19, 2423-2429; 2000) using the Alamar Blue cell viability assay (described in O'Brien et al. Eur J Biochem 267, 5421-5426, 2000). The compounds are dissolved as 20 mM solutions in dimethylsulfoxide (DMSO) and subsequently diluted in semi-logarithmic steps. DMSO dilutions are further diluted 1:100 into Dulbecco's modified Eagle's medium (DMEM) containing 10% fetal calf serum to a final concentration twice as much as the final concentration in the test. RKO subclones are seeded into 96 well flat bottom plates at a density of 5000 cells per well in a volume of 50 μl per well. 24 hours after seeding the 50 μl each of the compound dilutions in DMEM medium are added into each well of the 96 Well plate. Each compound dilution is tested as quadruplicates. Wells containing untreated control cells are filled with 50 μl DMEM medium containing 1% DMSO. The cells are then incubated with the substances for 72 hours at 37° C. in a hunified atmosphere containing 5% carbon dioxide. To determine the viability of the cells, 10 μl of an Alamar Blue solution (Biosource) are added and the fluorescence is measured at an extinction of 544 nm and an emission of 590 nm. For the calculation of the cell viability the emission value from untreated cells is set as 100% viability and the emission rates of treated cells are set in relation to the values of untreated cells. Viabilities are expressed as % values.
The corresponding IC50 values of the compounds for anti-proliferative/cytotoxic activity are determined from the concentration-effect curves.
Representative IC50 values for anti-proliferation/cytotoxicity determined in the mentioned assay follow from the following table A, in which the numbers of the compounds correspond to the numbers of the examples.

[2] = test system: RKO colon adenocarcinoma cells (RKOp27) arrested by ectopic p27Kip1; assay: Alamar Blue cell viability assay on RKOp27 cells arrested by p27Kip1 expression induced with Ponasterone A (cell cycle specific mode of action); type: cell-based; conditions: Homo sapiens, RKOp27 cells arrested by p27Kip1 induced with 10 μM Ponasterone A, 72 hours incubation, read-out: IC50 RKO p27 induced (arrested)
Protocol: To determine the cell cycle specific mode of action, subclones of RKO colon adenocarcinoma cells (RKOp27 or RKOp21 as described by Schmidt et al. in Oncogene 19, 2423-2429; 2000) are seeded into 96 well flat bottom plates at a density of 15000 cells per well in a volume of 50 μl per well in DMEM growth medium with 10% FCS containing 10 μM Ponasterone A. 24 hours after seeding the 50 μl each of the compound dilutions in DMEM medium are added into each well of the 96 Well plate. Each compound dilution is tested as quadruplicates. Wells containing untreated control cells are filled with 50 μl DMEM medium containing 1% DMSO. The cells are then incubated with the substances for 72 hours at 37° C. in a humidified atmosphere containing 5% carbon dioxide. To determine the viability of the cells, 10 μl of an Alamar Blue solution (Biosource) are added and the fluorescence was measured at an extinction of 544 nm and an emission of 590 nm. For the calculation of the cell viability the emission value from untreated cells is set as 100% viability and the emission rates of treated cells are set in relation to the values of untreated cells. Viabilities are expressed as % values. Viability is compared of proliferating cells grown in the absence of the inducer Ponasterone A, versus viability of cells arrested by the expression of ectopic p27Kip1 induced by Ponasterone A.

With `COCCOCC(=O)N1CCc2c(sc(NC(=O)CCc3ccco3)c2C#N)C1` [Example 9, N-{3-Cyano-6-[2-(2-methoxy-ethoxy)-ethanoyl]-4,5,6,7-tetrahydro-thieno[2,3-c]pyridin-2-yl}-3-furan-2-yl-propionamide] the IC50 [1] was at most 0.3 µM and the IC50 [2] was over 100 µM.
`N#Cc1c(NC(=O)CCc2ccccc2)sc2c1CCN(C(=O)Cn1ccnc1)C2` [Example 19, N-[3-Cyano-6-(2-imidazol-1-yl-ethanoyl)-4,5,6,7-tetrahydro-thieno[2,3-c]pyridin-2-yl]-3-phenyl-propionamide] gave an IC50 [1] of 0.3 to 2 µM and an IC50 [2] of over 100 µM.
Molecule `Cc1cn(CC(=O)N2CCc3c(sc(NC(=O)CC(C)c4ccccc4)c3C#N)C2)cn1` (racemic) [Example 40, (RS)—N-{3-Cyano-6-[2-(4-methyl-imidazol-yl)-ethanoyl]-4,5,6,7-tetrahydro-thieno[2,3-c]pyridin-2-yl}-3-phenyl-butyramide] has an IC50 [1] of 0.3 to 2 µM and an IC50 [2] of at least 40 µM.
Molecule `COCC(=O)N1CCc2c(sc(NC(=O)CCc3ccccc3)c2C#N)C1` [Example 4, N-[3-Cyano-6-(2-methoxy-ethanoyl)-4,5,6,7-tetrahydro-thieno[2,3-c]pyridin-2-yl]-3-phenyl-propionamide] has an IC50 [1] of at most 0.3 µM and an IC50 [2] of over 100 µM.
In the case of `N#Cc1c(NC(=O)CCc2ccco2)sc2c1CCN(C(=O)Cc1ccccn1)C2` [Example 10, N-[3-Cyano-6-(2-pyridin-2-yl-ethanoyi)-4,5,6,7-tetrahydro-thieno[2,3-c]pyridin-2-yl]-3-furan-2-yl-propionamide], the IC50 [1] is reported as at most 0.3 µM and the IC50 [2] is reported as over 100 µM.
With `Cc1cn(CC(=O)N2CCc3c(sc(NC(=O)CC(C)c4ccccc4)c3C#N)C2)c(C)n1` (racemic) [Example 42, (RS)—N-{3-Cyano-6-[2-(2,4-dimethyl-midazol-1-yl)-ethanoy]-4,5,6,7-tetrahydro-thieno[2,3-c]pyridin-2-yl}-3-phenyl-butyramide] the IC50 [1] was 0.3 to 2 µM and the IC50 [2] was at least 10 µM.
`N#Cc1c(NC(=O)CCc2ccco2)sc2c1CCN(C(=O)CCn1ccnc1)C2` [Example 15, N-[3-Cyano-6-(3-Imidazo-1-yl-propanoyl)-4,5,6,7-tetrahydro-thieno[2,3-c]pyridin-2-yl]-3-furan-2-yl-propionamide] was tested, and the IC50 [1] was at most 0.3 µM and the IC50 [2] was over 100 µM.
Work on `N#Cc1c(NC(=O)CCc2ccccc2)sc2c1CCN(C(=O)CCn1ccnc1)C2` [Example 16, N-[3-Cyano-6-(3-imidazol-1-yl-propanoyl)-4,5,6,7-tetrahydro-thieno[2,3-c]pyridin-2-yl]-3-phenyl-propionamide] yielded an IC50 [1] of at most 0.3 µM and an IC50 [2] of over 100 µM.
Molecule `N#Cc1c(NC(=O)CCc2ccccc2)sc2c1CCN(C(=O)CCN1CCOCC1)C2` [Example 18, N-[3-Cyano-6-(3-morpholin-4-yl-propanoyl)-4,5,6,7-tetrahydro-thieno[2,3-c]pyridin-2-yl]-3-phenyl-propionamide] has an IC50 [1] of 0.3 to 2 µM and an IC50 [2] of over 100 µM.
`N#Cc1c(NC(=O)CCc2ccco2)sc2c1CCN(C(=O)Cc1cccnc1)C2` [Example 11, N-[3-Cyano-6-(2-pyridin-3-yl-ethanoyl)-4,5,6,7-tetrahydro-thieno[2,3-c]pyridin-2-yl]-3-furan-2-yl-propionamide] showed an IC50 [1] of at most 0.3 µM and an IC50 [2] of over 100 µM.
Work on `CCCC(=O)N1CCc2c(sc(NC(=O)CC(C)c3ccccc3)c2C#N)C1` (racemic) [Example 27, (RS)—N-(6-Butyryl-3-cyano-4,5,6,7-tetrahydro-thieno[2,3-c]pyridin-2-yl)-3-phenyl-butyramide] yielded an IC50 [1] of 0.3 to 2 µM and an IC50 [2] of over 100 µM.
Work on `COCC(=O)N1CCc2c(sc(NC(=O)CCc3ccco3)c2C#N)C1` [Example 13, N-[3-Cyano-6-(2-methoxy-ethanoyl)-4,5,6,7-tetrahydro-thieno[2,3-c]pyridin-2-yl]-3-furan-2-yl-propionamide] yielded an IC50 [1] of at most 0.3 µM and an IC50 [2] of over 100 µM.
In the case of `Cc1cn(CC(=O)N2CCc3c(sc(NC(=O)CCc4ccccc4)c3C#N)C2)cn1` [Example 41, N-{3-Cyano-6-[2-(4-methyl-imidazol-1-yl)-ethanoyl]-4,5,6,7-tetrahydro-thieno[2,3-c]pyridin-2-yl}-3-phenyl-propionamide], the IC50 [1] is reported as at most 0.3 µM and the IC50 [2] is reported as over 100 µM.
Molecule `Cc1nccn1CCC(=O)N1CCc2c(sc(NC(=O)CCc3ccccc3)c2C#N)C1` [Example 33, N-{3-Cyano-6-[3-(2-methyl-imidazol-1-yl)propanoyl]-4,5,6,7-tetrahydro-thieno[2,3-c]pyridin-2-yl}-3-phenyl-propionamide] has an IC50 [1] of 0.3 to 2 µM and an IC50 [2] of at least 10 µM.
`CCCC(=O)N1CCc2c(sc(NC(=O)CCc3ccco3)c2C#N)C1` [Example 14, N-(6-Butyryl-3-cyano-4,5,6,7-tetrahydro-thieno[2,3-c]pyridin-2-yl)-3-furan-2-yl-propionamide] showed an IC50 [1] of at most 0.3 µM and an IC50 [2] of over 100 µM.
`Cc1nccn1CCC(=O)N1CCc2c(sc(NC(=O)CC(C)c3ccccc3)c2C#N)C1` (racemic) [Example 32, (RS)—N-{3-Cyano-6-[3-(2-methyl-imidazol-1-yl)-propanoyl]-4,5,6,7-tetrahydro-thieno[2,3-c]pyridin-2-yl}-3-phenyl-butyramide] was tested, and the IC50 [1] was 0.3 to 2 µM and the IC50 [2] was at least 10 µM.
For `COCCOCC(=O)N1CCc2c(sc(NC(=O)CCc3ccccc3)c2C#N)C1` [Example 5], the IC50 [1] was 0.3 to 2 µM and the IC50 [2] was over 100 µM.
`Cc1nccn1CC(=O)N1CCc2c(sc(NC(=O)CC(C)c3ccccc3)c2C#N)C1` (racemic) [Example 37, (RS)—N-{3-Cyano-6-[2-(2-methyl-imidazo-1-yl)-ethanoyl]-4,5,6,7-tetrahydro-thieno[2,3-c]pyridin-2-yl}-3-phenyl-butyramide] showed an IC50 [1] of at most 0.3 µM and an IC50 [2] of at least 40 µM.
